In ChEMBL document CHEMBL3885861, “Open TG-GATES”:

Species: Rattus norvegicus
Assay: Open TG-GATES - Regimen: Daily Repeat
Format: toxicity, organism-based, Sprague-Dawley
Parameters: regimen Daily Repeat, gender Male, age 6 weeks
Conditions: in vivo, po, 20 mg/kg, route gavage, dose level Low; for APTT / Bas / Eos / Fbg / Hb / Ht / Lym / MCH / MCHC / MCV / Mono / Neu / PT / Plat / RBC / Ret / WBC: tissue Blood; for KIDNEY_L / KIDNEY_R / KIDNEY_TOTAL: tissue Kidney; for LIVER: tissue Liver; for A/G / ALP / ALT / AST / BUN / CRE / Ca / Cl / DBIL / GLC / IP / K / LDH / Na / PL / RALB / TBIL / TC / TG / TP / gamma-GTP: tissue Plasma

Compound `CC(CN1c2ccccc2Sc2ccccc21)N(C)C` (configuration not stated) [PROMETHAZINE] has a TERMINAL_BW (72 h, time 3 day) of 231 g, an APTT (72 h, time 3 day) of 22 s and a Bas (72 h, time 3 day) of 0%. The Eos (72 h, time 3 day) was 1%, the Fbg (72 h, time 3 day) was 314.4 mg/dL and the Hb (72 h, time 3 day) was 13.3 g/dL. The Ht (72 h, time 3 day) was 40.4%, the Lym (72 h, time 3 day) was 77.2% and the MCH (72 h, time 3 day) was 20.7 pg. The MCHC (72 h, time 3 day) was 33.1%, the MCV (72 h, time 3 day) was 62.7 fL and the Mono (72 h, time 3 day) was 2.4%. It also gave a Neu (72 h, time 3 day) of 18.6%, a PT (72 h, time 3 day) of 16.2 s and a Plat (72 h, time 3 day) of 125.4 x10_4/uL. For the same compound, the RBC (72 h, time 3 day) was 644.6 x10_4/ul, the Ret (72 h, time 3 day) was 6.8% and the WBC (72 h, time 3 day) was 97.3 x10_2/uL. It also gave a KIDNEY_L (72 h, time 3 day) of 1 g, a KIDNEY_R (72 h, time 3 day) of 1.1 g and a KIDNEY_TOTAL (72 h, time 3 day) of 2.1 g. For the same compound, the LIVER (72 h, time 3 day) was 11.5 g, the A/G (72 h, time 3 day) was 1.2 and the ALP (72 h, time 3 day) was 1570.4 IU/L. The ALT (72 h, time 3 day) was 48.2 IU/L, the AST (72 h, time 3 day) was 75.2 IU/L and the BUN (72 h, time 3 day) was 17.2 mg/dL. It also gave a CRE (72 h, time 3 day) of 0.2 mg/dL, a Ca (72 h, time 3 day) of 10.8 mg/dL and a Cl (72 h, time 3 day) of 105.4 meq/L. It also gave a DBIL (72 h, time 3 day) of 0 mg/dL, a GLC (72 h, time 3 day) of 184 mg/dL and an IP (72 h, time 3 day) of 7.1 mg/dL. It also gave a K (72 h, time 3 day) of 4.3 meq/L, an LDH (72 h, time 3 day) of 166.4 IU/L and a Na (72 h, time 3 day) of 142 meq/L. The PL (72 h, time 3 day) was 155.2 mg/dL, the RALB (72 h, time 3 day) was 3.1 g/dL and the TBIL (72 h, time 3 day) was 0.004 mg/dL. The TC (72 h, time 3 day) was 78.2 mg/dL, the TG (72 h, time 3 day) was 118.4 mg/dL and the TP (72 h, time 3 day) was 5.7 g/dL. It also gave a gamma-GTP (72 h, time 3 day) of 2 IU/L, a TERMINAL_BW ([…], time 7 day) of 261 g and a TERMINAL_BW ([…], time 14 day) of 292.3 g. The TERMINAL_BW ([…], time 28 day) was 387.7 g, the APTT ([…], time 7 day) was 22.6 s and the Bas ([…], time 7 day) was 0%. It also gave an Eos ([…], time 7 day) of 0.8%, a Fbg ([…], time 7 day) of 282.6 mg/dL and a Hb ([…], time 7 day) of 13.4 g/dL. It also gave a Ht ([…], time 7 day) of 40.4%, a Lym ([…], time 7 day) of 84.4% and an MCH ([…], time 7 day) of 20.5 pg. The MCHC ([…], time 7 day) was 33.3%, the MCV ([…], time 7 day) was 61.5 fL and the Mono ([…], time 7 day) was 2.4%. The Neu ([…], time 7 day) was 11.6%, the PT ([…], time 7 day) was 16 s and the Plat ([…], time 7 day) was 114.7 x10_4/uL. For the same compound, the RBC ([…], time 7 day) was 657.4 x10_4/ul, the Ret ([…], time 7 day) was 5.4% and the WBC ([…], time 7 day) was 125.4 x10_2/uL. The APTT ([…], time 14 day) was 23.8 s, the Bas ([…], time 14 day) was 0% and the Eos ([…], time 14 day) was 1%. For the same compound, the Fbg ([…], time 14 day) was 315 mg/dL, the Hb ([…], time 14 day) was 14.7 g/dL and the Ht ([…], time 14 day) was 42.6%. The Lym ([…], time 14 day) was 79.6%, the MCH ([…], time 14 day) was 19.8 pg and the MCHC ([…], time 14 day) was 34.4%. It also gave an MCV ([…], time 14 day) of 57.6 fL, a Mono ([…], time 14 day) of 2% and a Neu ([…], time 14 day) of 16.6%. For the same compound, the PT ([…], time 14 day) was 15.8 s, the Plat ([…], time 14 day) was 112 x10_4/uL and the RBC ([…], time 14 day) was 740.6 x10_4/ul. The Ret ([…], time 14 day) was 4.2%, the WBC ([…], time 14 day) was 109.3 x10_2/uL and the APTT ([…], time 28 day) was 23.6 s. For the same compound, the Bas ([…], time 28 day) was 0%, the Eos ([…], time 28 day) was 1% and the Fbg ([…], time 28 day) was 297.6 mg/dL. For the same compound, the Hb ([…], time 28 day) was 15 g/dL, the Ht ([…], time 28 day) was 43.5% and the Lym ([…], time 28 day) was 79.2%. It also gave an MCH ([…], time 28 day) of 19.1 pg, an MCHC ([…], time 28 day) of 34.6% and an MCV ([…], time 28 day) of 55.2 fL. It also gave a Mono ([…], time 28 day) of 1.6%, a Neu ([…], time 28 day) of 17.4% and a PT ([…], time 28 day) of 16.3 s. The Plat ([…], time 28 day) was 96.2 x10_4/uL, the RBC ([…], time 28 day) was 787.8 x10_4/ul and the Ret ([…], time 28 day) was 2.3%. For the same compound, the WBC ([…], time 28 day) was 118.8 x10_2/uL, the KIDNEY_L ([…], time 7 day) was 1.1 g and the KIDNEY_R ([…], time 7 day) was 1.1 g. The KIDNEY_TOTAL ([…], time 7 day) was 2.2 g, the KIDNEY_L ([…], time 14 day) was 1.1 g and the KIDNEY_R ([…], time 14 day) was 1.1 g. For the same compound, the KIDNEY_TOTAL ([…], time 14 day) was 2.3 g, the KIDNEY_L ([…], time 28 day) was 1.4 g and the KIDNEY_R ([…], time 28 day) was 1.4 g. The KIDNEY_TOTAL ([…], time 28 day) was 2.7 g, the LIVER ([…], time 7 day) was 12.4 g and the LIVER ([…], time 14 day) was 13.1 g. For the same compound, the LIVER ([…], time 28 day) was 15.9 g, the A/G ([…], time 7 day) was 1.3 and the ALP ([…], time 7 day) was 1595.8 IU/L. It also gave an ALT ([…], time 7 day) of 46 IU/L, an AST ([…], time 7 day) of 79.8 IU/L and a BUN ([…], time 7 day) of 18.2 mg/dL. For the same compound, the CRE ([…], time 7 day) was 0.2 mg/dL, the Ca ([…], time 7 day) was 10.5 mg/dL and the Cl ([…], time 7 day) was 106.4 meq/L. The DBIL ([…], time 7 day) was 0 mg/dL, the GLC ([…], time 7 day) was 185.2 mg/dL and the IP ([…], time 7 day) was 6.7 mg/dL. For the same compound, the K ([…], time 7 day) was 4.3 meq/L, the LDH ([…], time 7 day) was 169.2 IU/L and the Na ([…], time 7 day) was 141.6 meq/L. The PL ([…], time 7 day) was 133 mg/dL, the RALB ([…], time 7 day) was 3.1 g/dL and the TBIL ([…], time 7 day) was 0.004 mg/dL. The TC ([…], time 7 day) was 66.2 mg/dL, the TG ([…], time 7 day) was 113.4 mg/dL and the TP ([…], time 7 day) was 5.5 g/dL. It also gave a gamma-GTP ([…], time 7 day) of 1.8 IU/L, an A/G ([…], time 14 day) of 1.2 and an ALP ([…], time 14 day) of 1261.8 IU/L. It also gave an ALT ([…], time 14 day) of 45.8 IU/L, an AST ([…], time 14 day) of 71.4 IU/L and a BUN ([…], time 14 day) of 18.6 mg/dL. It also gave a CRE ([…], time 14 day) of 0.2 mg/dL, a Ca ([…], time 14 day) of 10.6 mg/dL and a Cl ([…], time 14 day) of 106 meq/L. It also gave a DBIL ([…], time 14 day) of 0 mg/dL, a GLC ([…], time 14 day) of 182.6 mg/dL and an IP ([…], time 14 day) of 6.2 mg/dL. For the same compound, the K ([…], time 14 day) was 4.1 meq/L, the LDH ([…], time 14 day) was 128.4 IU/L and the Na ([…], time 14 day) was 142.6 meq/L. The PL ([…], time 14 day) was 146.6 mg/dL, the RALB ([…], time 14 day) was 3.2 g/dL and the TBIL ([…], time 14 day) was 0.004 mg/dL. For the same compound, the TC ([…], time 14 day) was 71.6 mg/dL, the TG ([…], time 14 day) was 116.6 mg/dL and the TP ([…], time 14 day) was 5.8 g/dL. For the same compound, the gamma-GTP ([…], time 14 day) was 2.6 IU/L, the A/G ([…], time 28 day) was 1.1 and the ALP ([…], time 28 day) was 1046.2 IU/L. It also gave an ALT ([…], time 28 day) of 48.6 IU/L, an AST ([…], time 28 day) of 71.6 IU/L and a BUN ([…], time 28 day) of 19.8 mg/dL. It also gave a CRE ([…], time 28 day) of 0.2 mg/dL, a Ca ([…], time 28 day) of 10.4 mg/dL and a Cl ([…], time 28 day) of 106.4 meq/L. For the same compound, the DBIL ([…], time 28 day) was 0 mg/dL, the GLC ([…], time 28 day) was 184.6 mg/dL and the IP ([…], time 28 day) was 5.9 mg/dL. The K ([…], time 28 day) was 4 meq/L, the LDH ([…], time 28 day) was 136 IU/L and the Na ([…], time 28 day) was 143.2 meq/L. The PL ([…], time 28 day) was 137.4 mg/dL, the RALB ([…], time 28 day) was 3.1 g/dL and the TBIL ([…], time 28 day) was 0.006 mg/dL. It also gave a TC ([…], time 28 day) of 65.4 mg/dL, a TG ([…], time 28 day) of 139.8 mg/dL and a TP ([…], time 28 day) of 6 g/dL. It also gave a gamma-GTP ([…], time 28 day) of 2 IU/L.
